Test results reported in patent US20110257168A1, “DERIVATIVES OF OXABISPIDINE AS NEURONAL NICOTINIC ACETYLCHOLINE RECEPTOR LIGANDS” (Targacept, Inc., priority 2008, published 2011).
pKi: −log10 of the molar value. Read-outs that look alike come from different tables or passages of the source.

Experiments:
[1] = target: human α4β2 (Homo sapiens, UniProt P17787+P43681); assay: Competition binding to human α4β2 receptors in membrane preparations; conditions: membranes, [3H]-nicotine competition; Ki by Cheng-Prusoff; read-out: human α4β2 Ki
Procedure: (§1) SH-EP1/human α4β2 (Eaton et al., 2003), SH-EP1/human α4β4 (Gentry et al., 2003), SH-EP1/α6β3β4α5 (Grinevich et al., 2005), TE671/RD and SH-SY5Y cell lines (obtained from Dr. Ron Lukas, Barrow Neurological Institute) were maintained in proliferative growth phase in Dulbecco's modified Eagle's medium (Gibco/BRL) with 10% horse serum (Gibco BRL), 5% fetal bovine serum (HyClone, Logan Utah), 1 mM sodium pyruvate, 4 mM L-glutamine. For maintenance of stable transfectants, the α4β2 and α4β4 cell media was supplemented with 0.25 mg/mL zeocin and 0.13 mg/mL hygromycin B. Selection was maintained for the α6β3β4α5 cells with 0.25 mg/mL of zeocin, 0.13 mg/mL of hygromycin B, 0.4 mg/mL of geneticin, and 0.2 mg/mL of blasticidin. HEK/human α7/RIC3 cells (obtained from J. Lindstrom, U. Pennsylvania) were maintained in proliferative growth phase in Dulbecco's modified Eagle's medium (Gibco/BRL) with 10% fetal bovine serum (HyClone, Logan Utah), 1 mM sodium pyruvate, 4 mM L-glutamine, 0.4 mg/mL geneticin; 0.2 mg/ml hygromycin B.
(§2) Preparation of membranes from rat tissues. Rat cortices were obtained from Analytical Biological Services, Incorporated (ABS, Wilmington, Del.). Tissues were dissected from female Sprague-Dawley rats, frozen and shipped on dry ice. Tissues were stored at −20° C. until needed for membrane preparation. Cortices from 10 rats were pooled and homogenized by Polytron (Kinematica GmbH, Switzerland) in 10 volumes (weight:volume) of ice-cold preparative buffer (KCl, 11 mM; KH2PO4, 6 mM; NaCl 137 mM; Na2HPO4 8 mM; HEPES (free acid), 20 mM; iodoacetamide, 5 mM; EDTA, 1.5 mM; 0.1 mM PMSF pH 7.4). The resulting homogenate was centrifuged at 40,000 g for 20 minutes at 4° C. and the resulting pellet was resuspended in 20 volumes of ice-cold water. After 60-minute incubation at 4° C., a new pellet was collected by centrifugation at 40,000 g for 20 minutes at 4° C. The final pellet was resuspended in preparative buffer and stored at −20° C. On the day of the assay, tissue was thawed, centrifuged at 40,000 g for 20 minutes and then resuspended in PBS (Dulbecco's Phosphate Buffered Saline, Life Technologies, pH 7.4) to a final concentration of 2-3 mg protein/mL. Protein concentrations were determined using the Pierce BCA Protein Assay kit (Pierce Biotechnology, Rockford, Ill.), with bovine serum albumin as the standard. Preparation of membranes from clonal cell lines. Cells were harvested in ice-cold PBS, pH 7.4, then homogenized with a polytron (Brinkmann Instruments, Westbury, N.Y.). Homogenates were centrifuged at 40,000 g for 20 minutes (4° C.). The pellet was resuspended in PBS and protein concentration determined using the Pierce BCA Protein Assay kit (Pierce Biotechnology, Rockford, Ill.).
(§3) Competition binding to receptors in membrane preparations. Binding to nicotinic receptors was assayed on membranes using standard methods adapted from published procedures (Lippiello and Fernandes, 1986; Davies et al., 1999). In brief, membranes were reconstituted from frozen stocks (approximately 0.2 mg protein) and incubated for 2 h on ice in […] assay buffer (PBS) in the presence of competitor compound (0.001 nM to […]) and radioligand. [^3H]-nicotine (L-(−)-[N-methyl-3H]-nicotine, 69.5 Ci/mmol, Perkin-Elmer Life Sciences) was used for human α4β2 binding studies. [^3H]-epibatidine (52 Ci/mmol, Perkin-Elmer Life Sciences) was used for binding studies at the other receptor subtypes. Incubation was terminated by rapid filtration on a multimanifold tissue harvester (Brandel, Gaithersburg, Md.) using GF/B filters presoaked in 0.33% polyethyleneimine (w/v) to reduce non-specific binding. Filters were washed 3 times and the radioactivity retained was determined by liquid scintillation counting.
(§4) Binding data analysis. Binding data were expressed as percent total control binding. Replicates for each point were averaged and plotted against the log of drug concentration. […]

[2] = target: T1, Human α7 (Homo sapiens, UniProt P36544); assay: Competition binding to human α7 receptors in membrane preparations
T1 construct: host or cells: HEK cells co-expressing RIC3
Procedure: as §1, §2, §3, §4

[3] = target: T2, Rat α4β2 (Rattus norvegicus, UniProt P09483+P12390); assay: Competition binding to rat α4β2 receptors in membrane preparations
T2 construct: Preparation of membranes from rat tissues; Rat cortices were obtained from Analytical Biological Services; tissue Analytical Biological Services, Incorporated (ABS, Wilmington, Del.); host or cells: rat cortex membranes (female Sprague-Dawley)
Procedure: as §2, §3
(§5) Binding data analysis. Binding data were expressed as percent total control binding. Replicates for each point were averaged and plotted against the log of drug concentration. The IC50 (concentration of the compound that produces 50% inhibition of binding) was determined by least squares non-linear regression using GraphPad Prism software (GraphPAD, San Diego, Calif.). Ki was calculated using the Cheng-Prusoff equation (Cheng and Prusoff, 1973).

[4] = target: T3, Rat α7 (Rattus norvegicus, UniProt Q05941); assay: Competition binding to rat α7 receptors in membrane preparations
T3 construct: Preparation of membranes from rat tissues; Rat cortices were obtained from Analytical Biological Services; tissue Analytical Biological Services, Incorporated (ABS, Wilmington, Del.); host or cells: rat brain membranes (only cortex is described)
Procedure: as §2, §3, §5

[5] = tested on: male ICR mice; assay: Formalin test (2.5%) in mice; type: in vivo
Procedure: The formalin test in mice is a valid and reliable model of nociception and is sensitive for various classes of analgesic drugs. The noxious stimulus is an injection of dilute formalin (1% in saline) under the skin of the dorsal surface of the right hindpaw. The response is the amount of time the animals spend licking the injected paw. Two distinct periods of high licking activity can be identified, an early phase lasting the first 5 min and a late phase lasting from 20 to 30 min after the injection of formalin. See, Hunskaar et al., Pain, 1987, July; 30(1):103-14, incorporated by reference with regard to the test.
A formalin test was carried out in an open Plexiglas cage, with a mirror placed under the floor to allow an unobstructed view of the paws. Mice were allowed to acclimate for 15 min in the test cage before formalin injection. Each animal was injected with 20 μl of 2.5% formalin in the intraplantar region of the right hindpaw. Mice were then observed 0-5 min (Phase 1) and 20-45 min (Phase 2) post-formalin, and the amount of time spent (expressed in sec) licking the injected paw was recorded. Compound A or vehicle were injected s.c. 15 min before the formalin injection.
FIG. 1 illustrates the effects of Compound A in the formalin test (2.5%) in male ICR mice. As described, subject mice were pretreated with an s.c. injection of Compound A and 15 minutes later received formalin ipl. […] The lowest active dose was 3 mg/kg.

[6] = membranes, [3H]-epibatidine competition, Ki by Cheng-Prusoff, read-out: Human α7 Ki
[7] = membranes, [3H]-epibatidine competition, Ki by Cheng-Prusoff, read-out: Rat α7 Ki

Compound	pKi [1]	pKi [2, 6]	pKi [3]	pKi [4, 7]	pKi [2]	nociceptive behavior (time licking the injected paw), Phase 1 ([5]; 0-5 min post-formalin, s.c. 15 min before formalin, F(1,35)=41.8, P<0.0001)	nociceptive behavior (time licking the injected paw), Phase 2 ([5]; 20-45 min post-formalin, s.c. 15 min before formalin, F(1,35)=24.8, P<0.0001)	lowest active dose ([5]; formalin test, s.c. administration) [mg/kg]	effects in formalin test in presence of mecamylamine ([5]; mecamylamine 2 mg/kg)	pKi [4]
c1cncc(N2CC3CNCC(C2)O3)c1 [3-(pyridin-3-yl)-9-oxa-3,7-diazabicyclo[3.3.1]nonane]	8.96	6.17	8.41	6.19						
c1ncc(N2CC3CNCC(C2)O3)cn1 [3-(pyrimidin-5-yl)-9-oxa-3,7-diazabicyclo[3.3.1]nonane]	8.12	5.54	8.10	5.49						
Fc1cncc(N2CC3CNCC(C2)O3)c1 [Compound A, 3-(5-fluoropyridin-3-yl)-9-oxa-3,7-diazabicyclo[3.3.1]nonane]	8.74		8.89		7.12	significantly reduced	significantly reduced	3	blocked	7.44
